One series has as its target T1, human topoisomerase II (Homo sapiens, UniProt P11388).
T1 construct: purchased Inspiralis
Briefly: Human topoisomerase decatenation assay. Type of series: biochemical. The method, then:
The decatenation assay was performed with the Human Topo II Decatenation Assay Kit (Inspiralis), according to the manufacturer's instructions, with minor modifications. First, a master mix was made containing 2 μl of 10 × assay buffer (500 mM Tris-HCl pH 7.5, 1250, mM NaCl, 100 mM MgCl2, 50 mM DTT, 1,000 μg ml^−1 albumin), 0.67 μl of 30 mM ATP, 1.34 μl of 0.1 ng μl^−1 kDNA, and 14.3 μl of nuclease-free water per sample is made. DMSO or 30 × compound is added to a 0.5-ml Eppendorf tube (0.67 μl per tube). The master mix is then added to each tube (18.3 μl per tube). Finally, 1 U of human topoisomerase (1 μl of 1 U μl^−1 stock) is added to each tube for a final volume of 20 μl. The tubes are then incubated at 37 °C for 30 min. Reactions are stopped by the addition of 20 μl of 24:1 chloroform:isoamyl alcohol and 20 μl of stop dye (40% sucrose, 1 mM EDTA, 100 mM Tris-HCl pH 7.5, 0.5 μg ml^−1 bromophenol blue). Samples were run on 1% agarose gels containing 0.5 μg ml^−1 ethidium bromide for 1 h at 110 V or until the dye front was approximately halfway down the gel. Gels were imaged on a Molecular Imager Gel Doc XR+ (Biorad).

The test system of series [1] is A. baumannii. The experiment in a line: MIC, microdilution broth, A. baumannii. Type of series: cell-based. To be noted: for MIC: Acinetobacter baumannii. From the text: (§1) MRSA and P. aeruginosa isolates were from Cubist Pharmaceuticals (Lexington, MA). VRE isolates were from a previously published collection. E. coli strains were obtained either from ATCC or Professor Cari Vanderpool (UIUC). A. baumannii isolates were obtained from Dr John Quale[51].
(§2) Mueller Hinton (MH) broth was used.

The next series concerns E. faecalis. The experiment in a line: microbe, parasite or virus in culture. In kind it is cell-based. To be noted: for MIC: Enterococcus faecalis, E. faecalis.
In series [2] the test system is A. baumannii. The arrangement: method as in earlier work. The settings on record: previously determined, cited from earlier work.
The test system of another series is E. faecium. The experiment in a line: microbe, parasite or virus in culture. In kind it is cell-based. The settings on record: for MIC: Enterococcus faecium, E. faecium.
For series [3], the system named is resistant strains of ATCC 29213. Briefly: microbe, parasite or virus in culture. Type of series: cell-based, S. aureus. To be noted: Staphylococcus aureus.
In series [4] the test system is P. aeruginosa. The experiment in a line: MIC, microdilution broth, P. aeruginosa. Type of series: cell-based.
Excerpt: as §1, §2
(Broth dilution looks for growth in wells or tubes with falling amounts of substance.)

Series [5] relates to P. aeruginosa. More on the design: method as in earlier work. To be noted: previously determined, cited from earlier work.
Another series has as its system E. coli. The experiment in a line: microbe, parasite or virus in culture. Type of series: cell-based.
Excerpt: as §1, §2

Series [6] has as its system WT S. aureus (ATCC 29213, WT). The experiment in a line: microbe, parasite or virus in culture. Type of series: cell-based. To be noted: WT GyrA and WT ParC, three independent replicates; for MIC against S. aureus 29213: ATCC 29213; for MIC: Staphylococcus aureus, ATCC29213, ATCC 29213, read-out: MIC against S. aureus 29213.
For series [7], the system named is FQR S. aureus (NRS3, FQR). The experiment in a line: MIC, microdilution broth assay, FQR MRSA NRS3. The settings on record: NRS3; S84L GyrA and S80F ParC; three independent replicates. In kind it is cell-based.
Series [8] is described as follows: Aqueous solubility determination. To be noted: PBS, pH 7.4.
Protocol: (§3) Three independent replicates of each compound were performed.
In another series the test system is VRE clinical isolates. The experiment in a line: MIC, VRE clinical isolates panel (summary by GyrA mutation). In kind it is cell-based, Enterococcus. The settings on record: panel of VRE clinical isolates (n=22).
Excerpt: as §1, §2

Another series concerns Ent. Spp. Briefly: MIC, microdilution broth, Ent. Spp. VRE clinical isolate. The settings on record: Enterococcus, C28036, gyrA Ser83Ile, parC Ser80Ile. In kind it is cell-based.
Excerpt: as §1, §2

A short description of a further series: physchem. To be noted: pH 7.4.
The test system of a further series is MRSA clinical isolates. The experiment in a line: microbe, parasite or virus in culture. Type of series: cell-based, S. aureus. The settings on record: for MIC: Staphylococcus aureus, MRSA, read-out: MIC. The method, then:
as §1
Susceptibility testing was performed in triplicate, using the microdilution broth method as outlined by the Clinical and Laboratory Standards Institute[52]. Mueller Hinton (MH) broth was used.

Setting [9] is: ATCC19433, ATCC 19433, gyrA WT, parC WT.
The mark [10] stands for this setting: ATCC29212, ATCC 29212, gyrA WT, parC WT.

≈ marks a conversion by molar mass, not a printed value. Like-named read-outs stand apart in the source and are kept apart here.

For orientation: solubility means the dissolved amount per volume that the medium holds.

T1 sequence (P11388 whole entry): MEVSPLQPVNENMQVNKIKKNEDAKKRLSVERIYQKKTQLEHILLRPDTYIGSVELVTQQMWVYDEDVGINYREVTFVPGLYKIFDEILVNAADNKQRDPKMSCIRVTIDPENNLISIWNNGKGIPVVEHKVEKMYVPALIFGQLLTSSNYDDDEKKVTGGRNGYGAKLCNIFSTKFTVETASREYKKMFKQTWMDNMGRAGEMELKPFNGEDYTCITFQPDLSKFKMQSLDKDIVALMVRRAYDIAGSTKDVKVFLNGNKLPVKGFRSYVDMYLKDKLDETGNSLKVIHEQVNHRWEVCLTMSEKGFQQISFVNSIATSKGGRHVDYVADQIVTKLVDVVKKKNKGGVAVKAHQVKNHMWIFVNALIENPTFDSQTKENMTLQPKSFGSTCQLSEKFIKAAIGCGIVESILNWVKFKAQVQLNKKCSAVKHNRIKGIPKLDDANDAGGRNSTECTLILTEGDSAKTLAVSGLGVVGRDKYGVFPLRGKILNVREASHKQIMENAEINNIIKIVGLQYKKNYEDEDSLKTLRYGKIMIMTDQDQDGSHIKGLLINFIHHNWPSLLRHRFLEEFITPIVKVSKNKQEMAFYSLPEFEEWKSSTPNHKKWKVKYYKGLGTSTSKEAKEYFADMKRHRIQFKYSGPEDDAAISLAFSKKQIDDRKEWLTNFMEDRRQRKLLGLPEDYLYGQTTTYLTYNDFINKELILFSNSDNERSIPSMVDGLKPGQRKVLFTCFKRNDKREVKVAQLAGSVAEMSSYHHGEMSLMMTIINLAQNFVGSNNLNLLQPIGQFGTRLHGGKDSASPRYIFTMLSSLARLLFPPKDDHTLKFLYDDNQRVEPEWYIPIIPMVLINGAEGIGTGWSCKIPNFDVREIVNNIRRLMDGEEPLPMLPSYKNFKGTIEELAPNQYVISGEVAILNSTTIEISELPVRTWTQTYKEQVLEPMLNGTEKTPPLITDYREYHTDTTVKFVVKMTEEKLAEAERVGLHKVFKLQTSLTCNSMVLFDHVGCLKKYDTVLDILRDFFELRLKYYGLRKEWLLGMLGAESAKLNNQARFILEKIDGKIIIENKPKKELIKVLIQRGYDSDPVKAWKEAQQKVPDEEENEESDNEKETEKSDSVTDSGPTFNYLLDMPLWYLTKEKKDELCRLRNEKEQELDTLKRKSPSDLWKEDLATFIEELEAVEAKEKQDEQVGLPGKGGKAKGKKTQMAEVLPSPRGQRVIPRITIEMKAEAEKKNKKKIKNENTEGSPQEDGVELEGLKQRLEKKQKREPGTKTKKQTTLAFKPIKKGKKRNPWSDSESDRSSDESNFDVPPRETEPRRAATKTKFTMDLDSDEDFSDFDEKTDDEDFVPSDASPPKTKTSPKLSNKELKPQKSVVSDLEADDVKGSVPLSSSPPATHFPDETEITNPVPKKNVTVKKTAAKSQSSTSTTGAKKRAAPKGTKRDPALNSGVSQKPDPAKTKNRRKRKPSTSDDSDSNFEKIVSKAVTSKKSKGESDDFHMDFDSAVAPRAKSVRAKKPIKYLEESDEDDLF
Protocol for physchem: as §3

With `COc1cccc2c1C(=O)c1c(O)c3c(c(O)c1C2=O)C[C@@](O)(C(=O)CO)C[C@@H]3O[C@H]1C[C@H](N)[C@H](O)[C@H](C)O1` [doxorubicin, reference compound], at human topoisomerase II, the “concentration inhibiting human topoisomerase II” value is 3 µM.
On to `O=C(O)c1cn(C2CC2)c2cc(N3CCNCC3)c(F)cc2c1=O` [CIP, ciprofloxacin, reference compound], for which the “CIP (S/R)” value in the series on A. baumannii [1] is “S”; in the series with A. baumannii [2] (A. baumannii KB304), “R”; with A. baumannii [2] (A. baumannii KB349), “R”; in the series with P. aeruginosa [4], “S”; in the series with P. aeruginosa [5] (PA1000) it was “R”; in the series on P. aeruginosa [5] (PA1586), “R”. For the same molecule, the “CIP (S/R)” value in the series on E. coli is “S”. The MIC was 2 µg/mL (≈ 6.04 µM) in the series on E. faecalis (setting [9]); 0.5 to 2 µg/mL (≈ 1.51 to 6.04 µM) with E. faecalis (setting [10]); 16 to 64 µg/mL (≈ 48.3 to 193 µM) in series [3] (ATCC29213, high-level CIP-resistant strains, second step, S84L mutation in GyrA); 4 to 8 µg/mL (≈ 12.1 to 24.1 µM) in [3] (ATCC29213, low-level CIP-resistant strains, first step, WT gyrA, mutation in ParC (for example E84K or S80F)). Moreover, the “CIP (S/I/R)” value in the series on E. faecalis (strain ATCC 19433) is “S (sensitive (S) if it had an MIC ≤ 4 µg mL-1)”; in the series with E. faecalis (strain ATCC 29212), “S (sensitive (S) if it had an MIC ≤ 4 µg mL-1)”; with E. faecalis (strain C21667) it was “R (resistant (R) with a MIC ≥ 16 µg mL-1)”; with E. faecalis (strain C28535) it was “R (resistant (R) with a MIC ≥ 16 µg mL-1)”; in the series on E. faecalis (strain S206), “R (resistant (R) with a MIC ≥ 16 µg mL-1)”; with E. faecalis (strain S234), “R (resistant (R) with a MIC ≥ 16 µg mL-1)”. In addition, the “CIP (S/I/R)” value with E. faecium (strain C21190), in the series with E. faecium (strain C27282), in the series on E. faecium (strain C27569), with E. faecium (strain D1), in the series with E. faecium (strain S34) and in the series with E. faecium (strain S51) was “R (resistant (R) with a MIC ≥ 16 µg mL-1)” each time. Besides, the “CIP (S/I/R)” value in the series with E. faecium (strain S122), in the series with E. faecium (strain S226), with E. faecium (strain S235), in the series with E. faecium (strain S344), in the series with E. faecium (strain S557) and with E. faecium (strain SL152) was “R (resistant (R) with a MIC ≥ 16 µg mL-1)” throughout. The “CIP (S/I/R)” value in the series on E. faecium (strain U63), in the series with E. faecium (strain U275), in the series with E. faecium (strain U464), with E. faecium (strain U503) and with E. faecium (strain U563) was “R (resistant (R) with a MIC ≥ 16 µg mL-1)” each time. Moreover, the “CIP MIC” value with A. baumannii [2] (A. baumannii KB304) is 24 µg/mL; with A. baumannii [2] (A. baumannii KB349), above 32 µg/mL.
Take `CCCc1cc(=O)n(C)c2c3c4c(cc12)c(CCC)cc(=O)n4CO3` [compound 14]: in series [6], the “MIC against S. aureus 29213” value was above 32 µg/mL and the MIC was above 32 µg/mL. Moreover, the “MIC against S. aureus NRS3” value in series [7] turned out to be 32 µg/mL (≈ 94.6 µM). For the same molecule, the solubility at 1 h in [8] is below 1 µM.
`CCCn1c(=O)cc(C)c2cc3c(C)cc(=O)n4c3c(c21)OC4` [DNM-8]: the “Sensitivity of VRE clinical isolates” value in the series on VRE clinical isolates is recorded as “sensitive”. Besides, the “MIC against S. aureus 29213” value in series [6] turned out to be 16 µg/mL (≈ 51.6 µM). Further, the MIC is 16 µg/mL (≈ 51.6 µM) in series [6]; above 32 µg/mL with A. baumannii [1]; above 32 µg/mL in the series with A. baumannii [1] (ATCC19606, A. baumannii ATCC 19606, read-out: MIC); 16 µg/mL (≈ 51.6 µM) against E. faecalis (setting [9]); 8 µg/mL (≈ 25.8 µM) against E. faecalis (setting [10]); 1 µg/mL (≈ 3.22 µM) in the series on E. faecalis (C21667, gyrA Ser83Ile, parC Ser80Ile). Besides, the MIC turned out to be 1 µg/mL (≈ 3.22 µM) against E. faecalis (C28535, gyrA Ser83Ile, parC Ser80Ile); 4 µg/mL (≈ 12.9 µM) with E. faecalis (S206, gyrA Ser83 Arg, parC Ser80Ile); 0.5 µg/mL (≈ 1.61 µM) against E. faecalis (S234, gyrA Ser83Ile, parC Ser80Ile Glu84Asp); 8 µg/mL (≈ 25.8 µM) with E. faecium (C21190, gyrA Ser83 Arg, parC Ser80Ile); 8 µg/mL (≈ 25.8 µM) against E. faecium (C27282, gyrA Ser83 Arg, parC Ser80Arg); 1 µg/mL (≈ 3.22 µM) with E. faecium (C27569, gyrA Ser83Ile, parC Ser80Ile). The MIC against E. faecium (D1, gyrA Ser83Ile, parC Ser80Ile) is 0.5 µg/mL (≈ 1.61 µM); with E. faecium (S34, gyrA Ser83Ile, parC Ser80 Arg), 2 µg/mL (≈ 6.44 µM); against E. faecium (S51, gyrA Ser83Ile, parC Ser80Ile), 1 µg/mL (≈ 3.22 µM); against E. faecium (S122, gyrA Ser83Ile, parC Ser80Ile), 1 µg/mL (≈ 3.22 µM); with E. faecium (S226, gyrA Ser83Ile, parC Ser80Ile) it was 1 µg/mL (≈ 3.22 µM); in the series with E. faecium (S235, gyrA Ser83Ile, parC Ser80Ile), 1 µg/mL (≈ 3.22 µM). In addition, the MIC with E. faecium (S344, gyrA Ser83Ile, parC Ser80Ile) came out at 1 µg/mL (≈ 3.22 µM); against E. faecium (S557, gyrA Ser83Ile, parC Ser80Ile) it was 0.5 µg/mL (≈ 1.61 µM); in the series on E. faecium (SL152, gyrA Ser83Ile, parC Ser80Ile), 1 µg/mL (≈ 3.22 µM); in the series on E. faecium (U63, gyrA Ser83 Arg, parC Ser80Ile) it was 4 µg/mL (≈ 12.9 µM); against E. faecium (U275, gyrA Ser83Cys Glu87Gly, parC Ser80Ile) it was 4 µg/mL (≈ 12.9 µM); against E. faecium (U464, gyrA Ser83 Arg, parC Ser80Ile) it was 2 µg/mL (≈ 6.44 µM). The MIC with E. faecium (U503, gyrA Ser83 Arg, parC Ser80Ile) was 4 µg/mL (≈ 12.9 µM); in the series on E. faecium (U563, gyrA Ser83 Arg, parC Ser80Ile) it was 4 µg/mL (≈ 12.9 µM); in the series on Ent. Spp., 1 µg/mL (≈ 3.22 µM); in the series with P. aeruginosa [4] (PA1586 (CIP resistant clinical isolate)), above 32 µg/mL; with P. aeruginosa [4] (Pseudomonas aeruginosa, P. aeruginosa PAO1, read-out: MIC) it was above 32 µg/mL; in the series with P. aeruginosa [4] (Pseudomonas aeruginosa, read-out: MIC), above 32 µg/mL. The MIC in the series with MRSA clinical isolates (strain SAU.1118) turned out to be 8 µg/mL (≈ 25.8 µM); with MRSA clinical isolates (strain SAU.2996), 2 µg/mL (≈ 6.44 µM); with MRSA clinical isolates (strain SAU.3017), 4 µg/mL (≈ 12.9 µM); with MRSA clinical isolates (strain SAU.3021), 0.125 µg/mL (≈ 0.403 µM); in the series on MRSA clinical isolates (strain SAU.3025), 0.125 µg/mL (≈ 0.403 µM); in the series on MRSA clinical isolates (strain SAU.3026) it was 0.25 µg/mL (≈ 0.806 µM). Besides, the MIC in the series on MRSA clinical isolates (strain SAU.42) is 8 µg/mL (≈ 25.8 µM); with MRSA clinical isolates (strain SAU.447), 1 µg/mL (≈ 3.22 µM); in the series with MRSA clinical isolates (strain SAU.555) it was 0.5 µg/mL (≈ 1.61 µM); in the series on MRSA clinical isolates (strain SAU.669) it was 0.125 µg/mL (≈ 0.403 µM); against E. coli (Escherichia coli, ATCC25922, E. coli ATCC 25922, gyrA none, parC none), above 32 µg/mL. Moreover, the “MIC against S. aureus NRS3” value in series [7] is 0.12 µg/mL (≈ 0.387 µM). For the same molecule, the solubility at 1 h in the series “physchem” was found to be 68 ± 9 µM (≈ 21.1 µg/mL). The “Sensitivity of MRSA clinical isolates” value with MRSA clinical isolates (panel of MRSA clinical isolates (n=21)) is given as “sensitive”.

The values are drawn from publication PMC4421842 (Nature Communications, 2015).
